The record followed here is paper PMC12670405, “Second-Generation AURKA-Targeting PROTACs: Structural Optimization toward in Vivo Degradation in Neuroblastoma” (Journal of Medicinal Chemistry, 2025).

Read-outs that look alike come from different tables or passages of the source.

One data set relates to NGP. The data set can be described thus: IncuCyte live-cell imaging, antiproliferative effect. As to conditions: Homo sapiens, 72 h. In kind it is cell-based. From the text: Human neuroblastoma cell lines NGP, IMR-32, SJNB-8, SK-N-BE(2)-C, SJNB-1, SK-N-SH and SK-N-AS, as well as benign immortalized cell lines RPE and HEK293T were either bought commercially or obtained through research laboratories. […] Screening for mycoplasma contamination occurred routinely on the cells. Human neuroblastoma cell lines SH-SY5Y_shABCB1 & SH-SY5Y_shNTC were generated by transduction with pLKO.1-ABCB1_TRCN0000059683 shRNA (Sigma MISSION SHCLND) or pLKO.1-puro NT shRNA (Sigma MISSION SHC002) vectors respectively (Supplementary Table S6), packaged using Lenti-X293T (Clontech). Transduced cells were selected with 2 μg/mL puromycin. These cells were cultured in DMEM 4.5 g/L D-Glucose, L-Glutamine and 110 mg/L Sodium Pyruvate (Gibco, #11995065) supplemented with 10% fetal bovine serum, 1× Antibiotic-Antimycotic solution (Sigma-Aldrich, #A5955) and 1× MEM nonessential amino acids (Sigma-Aldrich, #M7145). Incubation of all cells occurred at 37 °C and 5% CO2.
Neuroblastoma cells were seeded in 384-well plates at different densities ranging from 1200 to 5000 cells/well and allowed to adhere overnight. RPE and HEK293T were seeded at 200 and 600 cells/well, respectively. Compound treatment was performed using the D300e Digital Dispenser (Tecan) in duplicate or triplicate and cell confluency was monitored over time using the IncuCyte Live-cell imaging system (Sartorius). […] Mean normalized confluences were calculated from 3 individual experiments.
All dose–response curves were computed on GraphPad Prism using the Variable Slope (four parameters) equation. Absolute half-maximal degradation (DC50), growth inhibitory (GI50) and enzymatic inhibitory (IC50) concentrations, as well as inhibition constants (Ki) were derived from dose–response curves via interpolation. Statistical tests were performed on GraphPad Prism and detailed in the figure legends. Unless otherwise stated, “n” in the figure legends indicates the number of independent experiments conducted at different times.

The next data set can be described thus: Plasma stability assay. In kind it is in vitro ADME, CD-1 mouse. As to conditions: for half-life at 1 μM: read-out: plasma t1/2. Here is the method: (§1) Plasma and metabolic stability tests were performed by Eurofins Discovery. For the plasma stability assay, test compounds were incubated in CD-1 mouse plasma for 0, 0.5, 1, 1.5, and 2 h at 37 °C at a concentration of 1 μM. For the metabolic stability assay, test compounds were incubated at 37 °C in either (1) CD-1 mouse liver microsomes (MLM) (0.1 mg/mL) at a concentration of 0.1 μM for 0, 15, 30, 45, and 60 min or (2) CD-1 mouse hepatocytes (MH) (0.7 million viable cells/mL) at a concentration of 1 μM for 0, 0.5, 1, 1.5, and 2 h. At the respective time points, acetonitrile was added to the incubation mixture followed by centrifugation. Samples were analyzed by HPLC-MS/MS and peak areas were recorded for each analyte. Compound stability, expressed as the percentage of parent compound remaining, was calculated by comparing the peak area of the compound at each time point relative to that of the 0h time point. Percentage compound remaining is plotted as a function of time as a logarithmic curve. Half-life (t 1/2) is estimated from the slope of the initial linear range of the curve, assuming first-order kinetics. […] Both plasma and metabolic assay experiments were performed once with 2 replicate samples each.

A short description of data set [1]: Metabolic stability in mouse liver microsomes (MLM). The conditions noted are these: CD-1. The class given is in vitro ADME, CD-1 mouse. On the procedure:
as §1
On the technique in general: Liver microsomes are vesicles of endoplasmic reticulum, rich in cytochrome P450 enzymes.

The next data set deals with T1, AURKA (Homo sapiens, UniProt O14965).
T1 sequence (O14965 1-403): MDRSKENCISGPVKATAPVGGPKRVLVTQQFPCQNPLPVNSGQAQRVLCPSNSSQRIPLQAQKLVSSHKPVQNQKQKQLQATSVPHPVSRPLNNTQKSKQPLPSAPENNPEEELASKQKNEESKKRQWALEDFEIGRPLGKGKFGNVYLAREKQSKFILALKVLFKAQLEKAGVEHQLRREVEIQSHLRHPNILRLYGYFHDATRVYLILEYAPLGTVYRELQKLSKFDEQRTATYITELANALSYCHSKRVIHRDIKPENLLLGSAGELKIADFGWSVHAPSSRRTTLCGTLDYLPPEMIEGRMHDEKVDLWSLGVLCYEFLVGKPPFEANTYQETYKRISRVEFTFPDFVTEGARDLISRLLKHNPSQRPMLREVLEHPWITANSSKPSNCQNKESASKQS
Briefly: AURKA degradation, Simple Western.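 On AURKA Degradation 24h @1000nM: measured in NGP neuroblastoma cells.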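 On AURKA Degradation 24h @100nM: measured in NGP neuroblastoma cells.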 The class given is cell-based. The conditions noted are these: for pDC50: AURKA degradation; for DC50: read-out: AURKA DC50. Further details: Representative Western blot showing levels of endogenous proteins MDR1, MYCN, AURKA, and CRBN in untreated cell lines; endogenous in cells; host or cells: NGP, IMR-32, SJNB-8, SK-N-BE(2)-C, SK-N-SH, SK-N-AS, SJNB-1, RPE, HEK293T. Here is the method: Cells were seeded in T-25 flasks at different densities ranging from 1 to 2 million cells per flask and allowed to adhere for 1–2 days. In experiments involving compound treatment, this was done by medium replacement containing the compound(s) of interest in their corresponding concentrations. In competition binding experiments, cells were first pretreated with an excess of MK-5108, thalidomide or MG-132 for 1 h by shaking gently at room temperature prior to addition of SK4454 or SK5527. All samples were normalized to contain the same percentage of DMSO as the negative DMSO controls. Cells were harvested on ice at their respective time points by scraping, washed with ice-cold PBS to collect remaining cells, and centrifuged (2500 rpm, 4 °C). A second washing and centrifugation step was performed prior to collection of the final cell pellets which were then snap-frozen in liquid nitrogen and kept frozen at −80 °C until further processing. Lysis of cell pellets occurred in cold RIPA buffer (0.5% w/v Sodium Deoxycholate, 150 mM NaCl, 50 mM TrisHCl pH 7.5, 0.1% w/v SDS, 1% w/v NP-40) supplemented with protease and phosphatase inhibitors (Roche, #11836145001, #04906845001) by rotating gently at 4 °C for 1h, followed by a centrifugation step for 10 min (10,000 rpm, 4 °C). The supernatant was collected and concentrations of the obtained protein lysates were measured using the Pierce BCA Protein Assay Kit (Thermo Fisher Scientific, #23227).
Simple Western analyses were performed with the Wes instrument (Bio-Techne) using the 12–230 kDa Wes Separation module and the EZ standard pack reagent 1 (Biotechne, #SM-W001, #PS-ST01EZ-8) following the manufacturer’s protocol. Protein lysates were loaded at 0.8 μg/μL under denaturing conditions (0.2 μg/μL for MYCN detection). Chemiluminescence peaks were generated by the Compass Software (Bio-Techne) and the area under the peaks calculated using the Gaussian fit method. Per lane, quantified data were always normalized to that of the loading control (Vinculin) prior to calculating fold changes relative to the negative DMSO control. Mean fold changes are calculated from 3 individual experiments. A list of the primary and secondary antibodies used can be found in the Supporting Information (Supplementary Table S7).
Graphs were generated using GraphPad Prism Software (version 10.1.2) or RStudio (R-4.3.2). All dose–response curves were computed on GraphPad Prism using the Variable Slope (four parameters) equation. Absolute half-maximal degradation (DC50), growth inhibitory (GI50) and enzymatic inhibitory (IC50) concentrations, as well as inhibition constants (Ki) were derived from dose–response curves via interpolation. Statistical tests were performed on GraphPad Prism and detailed in the figure legends. Unless otherwise stated, “n” in the figure legends indicates the number of independent experiments conducted at different times.

Data set [2] is described as follows: Metabolic stability in mouse hepatocytes (MH). As to conditions: CD-1. In kind it is in vitro ADME, CD-1 mouse. On the procedure:
as §1

The microsomal CLint is the rate of metabolic loss divided by the concentration. As usually defined, the Dmax is the largest share of the target that was removed. Read a low Dmax as a partial loss of target. As a reminder, the DC50 is the concentration giving 50% degradation. For `O=C1CCC(Nc2ccc(N3CCN(C(=O)CNC(=O)[C@]4(Cc5cccc(Nc6nccs6)n5)CC[C@@H](Oc5cccc(Cl)c5F)CC4)CC3)cc2)C(=O)N1` (stereo partly shown) [PROTAC 14], in the data set on NGP (read-out: GI50 72h, 72h), the GI50 turned out to be 0.046 µM. In the data set on NGP (read-out: pGI50 (converted)), the GI50 was 0.0457 µM. Besides, the half-life at 1 μM in “Plasma stability assay” (CD-1 mouse plasma, 1 μM, 37 °C) was > 2 h. The “plasma t1/2” value in the data set “Plasma stability assay” (plasma) was > 2 h. This molecule also had a microsomal CLint at 0.1 μM in data set [1] of 739 µL/min/mg. Besides, at AURKA, the “AURKA Degradation 24h @100nM” value was 61, the “AURKA Degradation 24h @1000nM” value was determined as 73, the pDC50 is given as 7,36 and the DC50 came to 0.0438 µM. Moreover, on AURKA (NGP, 24 h treatment), the “AURKA degradation activity (in words)” value is “significantly stronger degradation activity” and the Dmax worked out at 76%.
What is called hepatocyte CLint is a measure of how fast metabolising enzymes remove a compound, apart from limits set by blood flow. `O=C1CCN(Cc2ccc(C3CCN(C4CN(C(=O)[C@]5(Cc6cccc(Nc7nccs7)n6)CC[C@@H](Oc6cccc(Cl)c6F)CC5)C4)CC3)nc2)C(=O)N1` [PROTAC 22]: the GI50 in the data set with NGP (read-out: GI50 72h, 72h) turned out to be 0.046 µM. Further, in the data set with NGP (read-out: pGI50 (converted)), the GI50 is 0.0468 µM. Also, the half-life at 1 μM in the data set “Plasma stability assay” (CD-1, mouse, plasma) was > 2 h. In addition, in data set [1], the microsomal CLint at 0.1 μM was found to be 693 µL/min/mg. Besides, the hepatocyte CLint at 1 μM in data set [2] was < 4.1 µL/min/1e6 cells. In addition, on AURKA, the “AURKA Degradation 24h @100nM” value turned out to be 86 and the “AURKA Degradation 24h @1000nM” value amounted to 87.
Take `O=C1CCN(c2ccc(N3CCN(CC4CCN(C(=O)[C@]5(Cc6cccc(Nc7nccs7)n6)CC[C@@H](Oc6cccc(Cl)c6F)CC5)C4)CC3)nc2)C(=O)N1` (stereo partly shown) [PROTAC 25]: in the data set with NGP (read-out: GI50 72h, 72h), the GI50 stood at 0.033 µM. Moreover, the GI50 in the data set with NGP (read-out: pGI50 (converted)) was 0.0324 µM. Further, the half-life at 1 μM in “Plasma stability assay” (CD-1, mouse, plasma) is > 2 h. In data set [1], this molecule gave a microsomal CLint at 0.1 μM of 426 µL/min/mg. The hepatocyte CLint at 1 μM in data set [2] was found to be 13.6 µL/min/1e6 cells. Besides, at AURKA, the “AURKA Degradation 24h @100nM” value is reported as 90, the “AURKA Degradation 24h @1000nM” value worked out at 87, the pDC50 is on record as 8,47 and the DC50 is 0.0034 µM.
For the molecule `O=C1CCN(c2ccc(N3CCN(CC4(F)CCN(C(=O)[C@]5(Cc6cccc(Nc7nccs7)n6)CC[C@@H](Oc6cccc(Cl)c6F)CC5)CC4)CC3)nc2)C(=O)N1` [PROTAC 27], the GI50 with NGP (read-out: GI50 72h, 72h) is 0.046 µM; in the data set with NGP (read-out: pGI50 (converted)) it was 0.0468 µM. Besides, in the data set “Plasma stability assay” (CD-1, mouse, plasma), the half-life at 1 μM was > 2 h. This molecule registered a microsomal CLint at 0.1 μM in data set [1] of 1060 µL/min/mg. At AURKA, the “AURKA Degradation 24h @100nM” value is recorded as 88. The “AURKA Degradation 24h @1000nM” value at AURKA amounted to 93.
For `O=C1CCN(c2ccc(C3CCN(C4CN(C(=O)[C@]5(Cc6cccc(Nc7nccs7)n6)CC[C@@H](Oc6cccc(Cl)c6F)CC5)C4)CC3)nc2)C(=O)N1` [PROTAC 28], in the data set on NGP (read-out: GI50 72h, 72h), the GI50 was 0.048 µM. In addition, the GI50 with NGP (read-out: pGI50 (converted)) is 0.0479 µM. In addition, the half-life at 1 μM in the data set “Plasma stability assay” (CD-1, mouse, plasma) was > 2 h. Also, the microsomal CLint at 0.1 μM in data set [1] came out at 367 µL/min/mg. In addition, the hepatocyte CLint at 1 μM in data set [2] is 13 µL/min/1e6 cells. On AURKA, the “AURKA Degradation 24h @100nM” value is 80, the “AURKA Degradation 24h @1000nM” value stood at 78, the pDC50 was 8,52 and the DC50 came to 0.003 µM.
For `Cc1cc(Nc2ccc(F)c(CC3(C(=O)N4CCC(F)(CN5CCC(c6ccc(N7CCC(=O)NC7=O)cn6)CC5)CC4)CCN(Cc4cccc(Cl)c4F)CC3)n2)n[nH]1` [PROTAC 37], the GI50 in the data set on NGP (read-out: GI50 72h, 72h) is 0.045 µM; with NGP (read-out: pGI50 (converted)) it was 0.0447 µM. In addition, the half-life at 1 μM in “Plasma stability assay” (CD-1, mouse, plasma) is > 2 h. For the same molecule, the microsomal CLint at 0.1 μM in data set [1] was determined as 617 µL/min/mg. Also, in data set [2], the hepatocyte CLint at 1 μM is 4.5 µL/min/1e6 cells. Also, the “AURKA Degradation 24h @100nM” value at AURKA came out at 84. Moreover, the “AURKA Degradation 24h @1000nM” value on AURKA was 86.
Take `O=C1CCC(N2C(=O)c3ccc(OCCOCCNC(=O)[C@]4(Cc5cccc(Nc6nccs6)n5)CC[C@@H](Oc5cccc(Cl)c5F)CC4)cc3C2=O)C(=O)N1` (stereo partly shown) [SK3277, reference compound]: in the data set with NGP (read-out: GI50 72h, 72h), the GI50 turned out to be 0.052 µM. In addition, the GI50 in the data set on NGP (read-out: pGI50 (converted)) was 0.0525 µM. Further, the half-life at 1 μM in the data set “Plasma stability assay” (CD-1 mouse plasma, 1 μM, 37 °C) worked out at 1.18 h. The molecule also showed a microsomal CLint at 0.1 μM in data set [1] of 1080 µL/min/mg. Further, at AURKA, the “AURKA Degradation 24h @100nM” value was determined as 81, the “AURKA Degradation 24h @1000nM” value stood at 75, the pDC50 is given as 8,15 and the DC50 worked out at 0.007 µM. Besides, the Dmax on AURKA (NGP, 24 h treatment) stood at 81%.
